Laboratory results from PubChem BioAssay AID1963979 (Molecular Pharmacology Branch, DTP, NCI, 2024).
Values belong to the molecule of their own block, whether it stands above or below them.

System: 361931-004-R-J1-PDC multicell spheroid viability
Experiment: Anticancer human tumor 361931-004-R-J1-PDC patient-derived colon adenocarcinoma cell line growth inhibition [PI3K]
Details: for IC50: curve of first compound; for viability, T/C: stronger effect = lower value
Procedure, shortened: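 Complex 3D spheroids (cancer cells + endothelial HUVEC + mesenchymal stem cells); drug pairs of targeted agent x inavolisib/alpelisib/duvelisib/copanlisib; half-log series from ~Cmax, max 10 microM if Cmax unknown; endpoint viability.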

[1] = second compound 0.0316 µM, first compound 0.0316 µM
[2] = second compound 0.0316 µM, first compound 0.1 µM
[3] = second compound 0.0316 µM, first compound 0.316 µM
[4] = second compound 0.0316 µM, first compound 1 µM
[5] = second compound 0.0316 µM, first compound 3.16 µM
[6] = second compound 0.0316 µM, first compound 10 µM
[7] = second compound 0.1 µM, first compound 0.0316 µM
[8] = second compound 0.1 µM, first compound 0.1 µM
[9] = second compound 0.1 µM, first compound 0.316 µM
[10] = second compound 0.1 µM, first compound 1 µM
[11] = second compound 0.1 µM, first compound 3.16 µM
[12] = second compound 0.1 µM, first compound 10 µM
[13] = second compound 0.316 µM, first compound 0.0316 µM
[14] = second compound 0.316 µM, first compound 0.1 µM
[15] = second compound 0.316 µM, first compound 0.316 µM
[16] = second compound 0.316 µM, first compound 1 µM
[17] = second compound 0.316 µM, first compound 3.16 µM
[18] = second compound 0.316 µM, first compound 10 µM
[19] = second compound 1 µM, first compound 0.0316 µM
[20] = second compound 1 µM, first compound 0.1 µM
[21] = second compound 1 µM, first compound 0.316 µM
[22] = second compound 1 µM, first compound 1 µM
[23] = second compound 1 µM, first compound 3.16 µM
[24] = second compound 1 µM, first compound 10 µM
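Also: spheroids exposed to agents for seven days before readout.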

IC50 (second compound 0.0316 µM): 6.27 µM
IC50 (second compound 0.1 µM): 5.92 µM
IC50 (second compound 0.316 µM): 5.95 µM
IC50 (second compound 1 µM): 5.58 µM
IC50 (second compound 3.16 µM): 5.2 µM
IC50 (second compound 10 µM): 4.73 µM
Compound: CC1(C)CCC(Nc2ncc(C(F)(F)F)c(-c3c[nH]c4c(P(C)(C)=O)c(C#N)ccc34)n2)CN1 (centres undefined) + CC(Nc1ncnc2nc[nH]c12)c1cc2cccc(Cl)c2c(=O)n1-c1ccccc1
viability, T/C [1]: 106%
viability, T/C [2]: 108%
viability, T/C [3]: 104%
viability, T/C [4]: 101%
viability, T/C [5]: 103%
viability, T/C [6]: 13.7%
viability, T/C [7]: 122%
viability, T/C [8]: 103%
viability, T/C [9]: 96%
viability, T/C [10]: 101%
viability, T/C [11]: 93.4%
viability, T/C [12]: 14.5%
viability, T/C [13]: 108%
viability, T/C [14]: 106%
viability, T/C [15]: 99.4%
viability, T/C [16]: 98%
viability, T/C [17]: 95.8%
viability, T/C [18]: 12.4%
viability, T/C [19]: 110%
viability, T/C [20]: 101%
viability, T/C [21]: 98.8%
viability, T/C [22]: 98.4%
viability, T/C [23]: 86.9%
viability, T/C [24]: 12.8%
viability, T/C (second compound 3.16 µM, first compound 0.0316 µM): 105%
viability, T/C (second compound 3.16 µM, first compound 0.1 µM): 94.9%
viability, T/C (second compound 3.16 µM, first compound 0.316 µM): 95.8%
viability, T/C (second compound 3.16 µM, first compound 1 µM): 94.1%
viability, T/C (second compound 3.16 µM, first compound 3.16 µM): 80.6%
viability, T/C (second compound 3.16 µM, first compound 10 µM): 10.6%
viability, T/C (second compound 10 µM, first compound 0.0316 µM): 93.1%
viability, T/C (second compound 10 µM, first compound 0.1 µM): 90.8%
viability, T/C (second compound 10 µM, first compound 0.316 µM): 88.9%
viability, T/C (second compound 10 µM, first compound 1 µM): 88%
viability, T/C (second compound 10 µM, first compound 3.16 µM): 74%
viability, T/C (second compound 10 µM, first compound 10 µM): 5.6%

IC50 (second compound 0.00316 µM): 2.52 µM
IC50 (second compound 0.01 µM): 1.91 µM
IC50 (second compound 0.0316 µM): 1.82 µM
IC50 (second compound 0.1 µM): 1.57 µM
IC50 (second compound 0.316 µM): 0.0491 µM
IC50 (second compound 1 µM): < 0.0316 µM
Compound: Cn1ncc(Cl)c1-c1cc(C(=O)NC(CN)Cc2cccc(F)c2)sc1Cl (centres undefined) + COc1c(OCCCN2CCOCC2)ccc2c3n(c(=NC(=O)c4cnc(N)nc4)nc12)CCN3
viability, T/C (second compound 0.00316 µM, first compound 0.0316 µM): 104%
viability, T/C (second compound 0.00316 µM, first compound 0.1 µM): 111%
viability, T/C (second compound 0.00316 µM, first compound 0.316 µM): 100%
viability, T/C (second compound 0.00316 µM, first compound 1 µM): 80.6%
viability, T/C (second compound 0.00316 µM, first compound 3.16 µM): 42.5%
viability, T/C (second compound 0.00316 µM, first compound 10 µM): 27.4%
viability, T/C (second compound 0.01 µM, first compound 0.0316 µM): 104%
viability, T/C (second compound 0.01 µM, first compound 0.1 µM): 102%
viability, T/C (second compound 0.01 µM, first compound 0.316 µM): 94.8%
viability, T/C (second compound 0.01 µM, first compound 1 µM): 66.7%
viability, T/C (second compound 0.01 µM, first compound 3.16 µM): 37.2%
viability, T/C (second compound 0.01 µM, first compound 10 µM): 26.7%
viability, T/C [1]: 94.9%
viability, T/C [2]: 101%
viability, T/C [3]: 90.6%
viability, T/C [4]: 61.6%
viability, T/C [5]: 40.1%
viability, T/C [6]: 25.6%
viability, T/C [7]: 83.4%
viability, T/C [8]: 83.9%
viability, T/C [9]: 74.2%
viability, T/C [10]: 63%
viability, T/C [11]: 31.6%
viability, T/C [12]: 19%
viability, T/C [13]: 54.2%
viability, T/C [14]: 43.5%
viability, T/C [15]: 40.5%
viability, T/C [16]: 35.8%
viability, T/C [17]: 30.9%
viability, T/C [18]: 15.8%
viability, T/C [19]: 19.7%
viability, T/C [20]: 19.4%
viability, T/C [21]: 18.7%
viability, T/C [22]: 20.3%
viability, T/C [23]: 19.7%
viability, T/C [24]: 10.3%
